Results published in patent publication US20060014940A1, “Cloning and characterization of slc26a6, slc26a1, and slc26a2 anion exchangers” (priority 2002, published 2006).

What was measured:
mouse SLC26A6b [1] = target: T1, mouse SLC26A6b (Mus musculus, UniProt Q8CIW6, R572P); test: Radiolabelled anion uptake/exchange in Xenopus oocytes expressing mouse SLC26A6b; assay type: cell-based; conditions: for cis-inhibition of SO4 2− transport / cis-inhibition of Cl−—Cl− exchange: 25 mM of the anion; for cis-inhibition of SO4 2− transport: 35SO4 uptake one hour (FIG. 7B); for cis-inhibition of Cl−—Cl− exchange: 36Cl− uptake one hour (FIG. 7A); for exchange of SO4 2− with extracellular anion (trans-stimulation of 35SO4 efflux): 10 mM of the anion, 30 minutes (FIG. 7C); for 36Cl− uptake: 8.3 mM 36Cl
T1 construct: Full-length mouse SLC26A6b and SLC26A 1 cDNAs were cloned into the Xenopus expression vector pGEMHE; expressed in transfected cells; host or cells: Xenopus laevis oocytes injected with in vitro transcribed cRNA (pGEMHE)
T1 sequence (Q8CIW6 24-758 R572P limits assumed): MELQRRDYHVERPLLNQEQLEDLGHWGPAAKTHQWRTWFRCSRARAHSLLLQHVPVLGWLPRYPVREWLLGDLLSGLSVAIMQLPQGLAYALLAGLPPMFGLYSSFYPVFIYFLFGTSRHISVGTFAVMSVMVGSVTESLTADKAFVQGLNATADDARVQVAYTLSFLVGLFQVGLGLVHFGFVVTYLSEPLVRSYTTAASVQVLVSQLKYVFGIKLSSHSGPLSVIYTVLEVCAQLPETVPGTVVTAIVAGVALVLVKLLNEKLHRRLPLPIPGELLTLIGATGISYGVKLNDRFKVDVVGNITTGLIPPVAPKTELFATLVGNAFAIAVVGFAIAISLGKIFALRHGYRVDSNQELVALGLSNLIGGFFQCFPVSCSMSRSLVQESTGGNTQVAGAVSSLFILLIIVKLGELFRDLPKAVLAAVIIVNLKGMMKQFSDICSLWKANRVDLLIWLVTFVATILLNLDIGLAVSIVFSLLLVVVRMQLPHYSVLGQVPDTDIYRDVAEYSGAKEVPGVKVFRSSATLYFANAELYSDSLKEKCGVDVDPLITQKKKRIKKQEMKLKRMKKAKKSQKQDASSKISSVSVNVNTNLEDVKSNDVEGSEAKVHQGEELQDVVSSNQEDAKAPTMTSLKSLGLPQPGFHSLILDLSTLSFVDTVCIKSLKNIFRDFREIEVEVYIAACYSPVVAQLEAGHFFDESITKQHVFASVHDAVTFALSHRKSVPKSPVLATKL
Description: (§1) Full-length mouse SLC26A6b and SLC26A 1 cDNAs were cloned into the Xenopus expression vector pGEMHE (Liman et al., 1992). The SLC26A6 and SLC26A1 expression constructs were linearized, and cRNA was transcribed in vitro using T7 RNA polymerase and a […] MMACHINE® transcription kit (Ambion, Inc. of Austin, Tex., United States of America). Defolliculated oocytes were injected with 25 nl to 50 nl of water or with a solution containing cRNA at a concentration of 0.5 μg/μl (12.5 ng to 25 ng per oocyte) using a Nanoliter-2000 injector (WPI Instruments of Sarasota, Fla., United States of America). Oocytes were incubated at 17° C. in 50% Leibovitz's L-15 media supplemented with penicillin/streptomycin (1000 units/ml) and glutamine for 2-3 days for uptake assays.
(§2) For sulphate uptake assays, oocytes were pre-incubated for 20 minutes in chloride-free uptake medium (100 mM NMDG gluconate, 2 mM potassium gluconate, 1 mM calcium gluconate, 1 mM magnesium gluconate, 10 mM HEPES-Tris, pH 6.0 or pH 7.5 as indicated), followed by a 60-minute period for uptake in the same medium supplemented with 1 mM K2^35SO4 (40 μCi/ml). The cells were then washed three times in uptake buffer with 5 mM cold K2SO4 to remove tracer activity in the extracellular fluid. The oocytes were dissolved individually in 10% SDS, and tracer activity was determined by scintillation counting. Uptake of chloride, formate, and oxalate was assayed using the same chloride-free uptake solutions, substituting 8.3 mM ^36Cl, 500 μM [^14C]oxalate, or 50 μM [^14C]formate for labeled sulphate.
(§3) For sulphate exchange and cis-inhibition experiments, the concentration of NMDG-gluconate in the uptake solution was adjusted to maintain isotonic osmolality, which was confirmed experimentally using a FISKE® osmometer (Fiske Associates, Inc. of Bethel, Conn., United States of America).

mouse SLC26A1 = target: T2, mouse SLC26A1 (Mus musculus, UniProt P58735, C691Y); test: Radiolabelled anion uptake in Xenopus oocytes expressing mouse SLC26A1; assay type: cell-based; conditions: for effect of extracellular anion on SO4 2− transport via SLC26A1: 25 mM of the anion (FIG. 9A, 6C); for transport via SLC26A1: FIG. 6B, FIG. 8B
T2 construct: Full-length mouse SLC26A6b and SLC26A 1 cDNAs were cloned into the Xenopus expression vector pGEMHE; expressed in transfected cells; host or cells: Xenopus laevis oocytes injected with in vitro transcribed cRNA (pGEMHE)
T2 sequence (P58735 1-704 C691Y): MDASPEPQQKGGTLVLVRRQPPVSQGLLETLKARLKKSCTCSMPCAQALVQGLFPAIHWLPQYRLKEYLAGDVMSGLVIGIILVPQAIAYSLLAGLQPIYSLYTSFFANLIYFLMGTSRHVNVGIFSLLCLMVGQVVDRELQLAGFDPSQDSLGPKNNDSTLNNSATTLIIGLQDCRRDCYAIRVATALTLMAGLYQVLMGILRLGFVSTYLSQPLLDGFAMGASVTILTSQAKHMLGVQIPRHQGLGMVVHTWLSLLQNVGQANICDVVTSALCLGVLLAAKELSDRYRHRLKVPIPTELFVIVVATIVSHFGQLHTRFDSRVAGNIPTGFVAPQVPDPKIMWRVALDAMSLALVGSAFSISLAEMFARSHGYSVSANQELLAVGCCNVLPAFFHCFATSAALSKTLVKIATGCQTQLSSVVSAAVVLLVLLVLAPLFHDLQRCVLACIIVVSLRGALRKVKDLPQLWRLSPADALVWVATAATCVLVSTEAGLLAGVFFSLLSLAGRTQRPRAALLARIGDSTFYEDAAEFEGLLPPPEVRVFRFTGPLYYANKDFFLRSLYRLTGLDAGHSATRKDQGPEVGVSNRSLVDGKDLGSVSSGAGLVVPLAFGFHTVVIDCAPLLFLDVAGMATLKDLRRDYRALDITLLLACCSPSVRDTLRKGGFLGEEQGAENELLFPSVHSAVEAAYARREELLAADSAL
Description: as §1, §2, §3

mouse SLC26A2 = mouse SLC26A2 (Mus musculus, UniProt Q62273)
Description: as §2

human SLC26A6 = system: human SLC26A6
Source text: FIG. 13 depicts chloride uptake in Xenopus oocytes expressing Xenopus xPDS2, human SLC26A3 (DRA), mouse Slc26a6, and human SLC26A6, with extracellular pH of 7.5 (open bars) or 6.0 (dark fill).
FIG. 15 depicts sulphate transport mediated by Xenopus oocytes expressing human SLC26A6, at varying concentrations of extracellular SO4^2− and constant amounts of tracer ^35SO4^2−.
A feature of the mammalian SLC26 gene family is relatively low conservation between orthologs in mouse and man; the percent amino acid identity ranges from a low of 76% (SLC26A8) to a high of 90% (SLC26A9), versus the reported median of 86% for mouse and human orthologous genes. Makalowski, W. & Boguski, 1998. This sequence divergence is reflected in functional variation, which can be exploited for structure-function analysis.

xSLC26A6 = conditions: FIG. 17
Source text: (§4) One or more of these xPDS genes likely corresponds to the Xenopus descendant of mammalian SLC26A3.

xPDS1 = test: Anion transport in Xenopus oocytes expressing xPDS1; assay type: cell-based, Xenopus laevis
Source text: as §4

xPDS2 = test: Anion transport in Xenopus oocytes expressing xPDS2; assay type: cell-based, Xenopus laevis
Source text: as §4

xPDS3 = test: Anion transport in Xenopus oocytes expressing xPDS3; assay type: cell-based, Xenopus laevis
Source text: as §4

mouse SLC26A6b [2] = target: T1, mouse SLC26A6b; test: Radiolabelled anion uptake/exchange in Xenopus oocytes expressing mouse SLC26A6b; assay type: cell-based; conditions: pH 7.4; DIDS 1 mM (FIG. 6A)
rat SLC26A1 = rat SLC26A1 (Rattus norvegicus, UniProt P45380); conditions: Satoh et al., 1998; cited from earlier work
SLC26A1 = SLC26A1 (Rattus norvegicus, UniProt P45380); conditions: Markovich & James, 1999; cited from earlier work
SLC26A1, sequence (P45380 whole entry): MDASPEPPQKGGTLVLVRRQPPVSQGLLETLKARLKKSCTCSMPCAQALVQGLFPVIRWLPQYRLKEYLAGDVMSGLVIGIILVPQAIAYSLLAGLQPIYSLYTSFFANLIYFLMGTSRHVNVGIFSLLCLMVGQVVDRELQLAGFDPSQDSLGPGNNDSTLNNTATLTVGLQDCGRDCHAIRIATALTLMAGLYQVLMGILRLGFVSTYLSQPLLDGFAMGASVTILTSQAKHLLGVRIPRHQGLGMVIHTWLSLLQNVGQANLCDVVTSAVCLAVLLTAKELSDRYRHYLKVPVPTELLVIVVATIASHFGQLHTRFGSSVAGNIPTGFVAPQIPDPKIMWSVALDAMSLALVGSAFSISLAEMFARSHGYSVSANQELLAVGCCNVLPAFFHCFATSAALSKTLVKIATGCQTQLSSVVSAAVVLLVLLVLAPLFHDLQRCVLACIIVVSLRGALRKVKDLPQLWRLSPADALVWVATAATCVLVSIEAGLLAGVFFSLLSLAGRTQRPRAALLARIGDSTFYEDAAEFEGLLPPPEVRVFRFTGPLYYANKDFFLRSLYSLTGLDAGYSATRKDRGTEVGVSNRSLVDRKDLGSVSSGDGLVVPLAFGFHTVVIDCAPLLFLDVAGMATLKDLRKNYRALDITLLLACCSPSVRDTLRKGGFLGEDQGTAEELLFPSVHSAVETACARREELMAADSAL

mouse SLC26A2, sequence (Q62273 whole entry): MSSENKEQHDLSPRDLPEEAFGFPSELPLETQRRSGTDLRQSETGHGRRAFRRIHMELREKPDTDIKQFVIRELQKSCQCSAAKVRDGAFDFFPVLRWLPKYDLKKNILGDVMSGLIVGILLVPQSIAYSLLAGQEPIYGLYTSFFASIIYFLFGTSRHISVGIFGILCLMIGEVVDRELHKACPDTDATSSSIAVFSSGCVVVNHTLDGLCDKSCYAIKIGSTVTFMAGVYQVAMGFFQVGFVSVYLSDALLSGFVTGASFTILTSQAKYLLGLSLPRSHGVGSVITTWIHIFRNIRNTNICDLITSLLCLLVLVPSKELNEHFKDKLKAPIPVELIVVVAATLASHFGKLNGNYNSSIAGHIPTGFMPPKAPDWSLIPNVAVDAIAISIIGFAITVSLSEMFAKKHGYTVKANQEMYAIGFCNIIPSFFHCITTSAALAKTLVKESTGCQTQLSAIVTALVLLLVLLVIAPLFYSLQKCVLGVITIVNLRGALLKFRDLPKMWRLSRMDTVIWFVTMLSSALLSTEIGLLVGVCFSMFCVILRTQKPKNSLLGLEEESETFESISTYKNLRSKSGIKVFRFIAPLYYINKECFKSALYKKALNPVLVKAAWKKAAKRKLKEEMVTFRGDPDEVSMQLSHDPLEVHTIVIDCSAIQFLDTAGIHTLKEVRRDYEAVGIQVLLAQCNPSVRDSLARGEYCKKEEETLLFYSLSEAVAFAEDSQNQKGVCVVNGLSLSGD
rat SLC26A1, sequence (P45380 whole entry): as the sequence (P45380 whole entry) above

Q: For Br [Br^−], which “cis-inhibition of SO4 2− transport” value (mouse SLC26A6b [1]) is on record?
A: cis-inhibitory

Q: What about the “cis-inhibition of Cl−—Cl− exchange” value (mouse SLC26A6b [1]) of the same compound?
A: cis-inhibitory

Q: Which “exchange of SO4 2− with extracellular anion (trans-stimulation of 35SO4 efflux)” value (mouse SLC26A6b [1]) does the source give for Cl [Cl^−, chloride] here?
A: clearly mediated exchange

Q: What about the “36Cl− uptake” value (mouse SLC26A6b [1]; pH 6.0) of the same compound?
A: 4193±109 pmol/oocyte/hour

Q: What about the “36Cl− uptake” value (mouse SLC26A6b [1]; pH 7.4) of the same compound?
A: 4345±243 pmol/oocyte/hour

Q: And the “effect of extracellular anion on SO4 2− transport via SLC26A1” value (mouse SLC26A1)?
A: much higher

Q: And the “transport via SLC26A1” value (mouse SLC26A1)?
A: not transported

Q: And the “Cl−—Cl− exchange” value (mouse SLC26A1; presence or absence of 25 mM SO4 2−)?
A: minimal

Q: What about the “effect of extracellular Cl− on 35SO4 2− uptake” value (mouse SLC26A2; 25 mM Cl− (FIG. 10B)) of the same compound?
A: significantly inhibited

Q: And the “Cl− transport” value (human SLC26A6; FIG. 13)?
A: clearly transports

Q: What about the “Cl− transport” value (xSLC26A6) of the same compound?
A: robust

Q: And the “Cl− transport” value (xPDS1; FIG. 17)?
A: robust

Q: And the “Cl− transport” value (xPDS2; FIG. 17)?
A: robust

Q: And the “Cl− transport” value (xPDS3; FIG. 17)?
A: robust

Q: For O=S(=O)(O)c1cc(N=C=S)ccc1C=Cc1ccc(N=C=S)cc1S(=O)(=O)O [DIDS, 4,4′-diisothiocyanatostilbene-2,2′-disulfonic acid], which “sulphate uptake, sensitivity to DIDS” value (mouse SLC26A6b [1]; pH 6.0, DIDS 1 mM (FIG. 6A)) is on record?
A: 101±10 pmol/oocyte/hour

Q: And the “sulphate uptake, sensitivity to DIDS” value (mouse SLC26A6b [2])?
A: 301±24 pmol/oocyte/hour

Q: With O=C(O)O [HCO3^−, bicarbonate] as the compound, how does the “activation of SO4 2− uptake” value (rat SLC26A1) read?
A: does not activate

Q: For I [I^−, iodide], which “cis-inhibition of SO4 2− transport” value (mouse SLC26A6b [1]) is on record?
A: cis-inhibitory

Q: And the “cis-inhibition of Cl−—Cl− exchange” value (mouse SLC26A6b [1])?
A: cis-inhibitory

Q: Which results are given for O=CO [formate]?
A: formate uptake (mouse SLC26A6b [1]; 50 μM [14C]formate (FIG. 8B)): 45±5 pmol/oocyte/hour; exchange of SO4 2− with extracellular anion (trans-stimulation of 35SO4 efflux) (mouse SLC26A6b [1]): clearly mediated exchange; cis-inhibition of Cl−—Cl− exchange (mouse SLC26A6b [1]): significantly inhibited; effect of extracellular anion on SO4 2− transport via SLC26A1 (mouse SLC26A1): activate; transport via SLC26A1 (mouse SLC26A1): not transported; formate uptake (mouse SLC26A1; SLC26A1-injected oocytes): 7 pmol/oocyte/h

Q: Which “cis-inhibition of Cl−—Cl− exchange” value (mouse SLC26A6b [1]) does the source give for CC(O)C(=O)O (stereo not drawn) [lactate] here?
A: not lactate significantly inhibited

Q: What about the “effect of extracellular anion on SO4 2− transport via SLC26A1” value (mouse SLC26A1) of the same compound?
A: activate

Q: Which results are given for O=S(=O)(O)O [sulphate]?
A: exchange of SO4 2− with extracellular anion (trans-stimulation of 35SO4 efflux) (mouse SLC26A6b [1]): clearly mediated exchange; cis-inhibition of Cl−—Cl− exchange (mouse SLC26A6b [1]): significantly inhibited; sulphate uptake at pH 7.4 versus pH 6.0 (mouse SLC26A6b [1]; SLC26A6b-injected oocytes): not significantly altered; sulphate uptake independent of Na+ (mouse SLC26A6b [1]; SLC26A6b-injected oocytes, Na+-free): 652±57 pmol/oocyte/hour; sulphate uptake independent of Cl− (mouse SLC26A6b [1]; SLC26A6b-injected oocytes, pH 7.4, Cl−-free medium, 1 mM 35SO4): 602±0 pmol/oocyte/hour; absolute rate of SO4 2− transport (mouse SLC26A6b [1]; mouse Slc26a6, increasing extracellular SO4 2− (FIG. 14)): ~4,000 pmol/oocyte/hr; effect of extracellular anion on SO4 2− transport via SLC26A1 (mouse SLC26A1): strongly cis-inhibitory; SO4 2− uptake (mouse SLC26A1; SLC26A1-injected oocytes (FIG. 6A)): 72±2 pmol/oocyte/h; 35SO4 2− uptake (mouse SLC26A2; absence of extracellular Cl− (FIG. 10A)): robust; 35SO4 2− uptake at pH 6.0 (mouse SLC26A2; pH 6.0 versus pH 7.4 (FIG. 10A)): increased significantly; absolute rate of SO4 2− transport (human SLC26A6; human SLC26A6, increasing extracellular SO4 2− (FIG. 15)): ~200 pmol/oocyte/hr; SO4 2− transport (xPDS1): none of the xPDS clones transport; SO4 2− transport (xPDS2): none of the xPDS clones transport; SO4 2− transport (xPDS3): none of the xPDS clones transport

Q: For mercury, which “effect on maximal sulphate transport via SLC26A1” value (SLC26A1) is on record?
A: strongly inhibited
